Experimental findings from ChEMBL document CHEMBL1137771, “Non-nucleoside inhibitors of HCV polymerase NS5B. Part 2: Synthesis and structure-activity relationships of benzothiazine-substituted quinolinediones” (Bioorg Med Chem Lett, 2009) are described below.

For data set [1], the system named is Hepatitis C virus. Nature of the data set: Inhibition of HCV genotype 1b isolate con1 NS5B polymerase assessed as incorporation of radiolabeled nucleotide into RNA product. On the set-up: species or system Hepacivirus hominis.
Data set [2] can be described thus: Cytotoxicity against human 2209-23 cells by WST1 assay. It is filed as cell-based. A general note: Formazan colour is commonly taken as a measure of viable cells.
For data set [3], the system named is Hepatitis C virus. In words: Antiviral activity against HCV genotype 1b isolate con1 infected in human 2209-23 cells assessed as inhibition of [3H]thymidine incorporation into DNA by scintillation proximity assay in presence of 5% fetal bovine serum. The format is functional, organism-based, Hepacivirus hominis. The conditions noted are these: isolate Con1, 2209-23.

Data set [4] relates to Hepatitis C virus. Nature of the data set: Antiviral activity against HCV genotype 1b isolate con1 infected in human 2209-23 cells assessed as inhibition of [3H]thymidine incorporation into DNA by scintillation proximity assay in presence of 40% human serum albumin. It is filed as functional, organism-based, Hepacivirus hominis. The conditions noted are these: isolate Con1, 2209-23.

Data set [5] relates to Hepatitis C virus. In words: Ratio of EC50 for HCV genotype 1b isolate con1 in presence of human serum albumin to EC50 for HCV genotype 1b isolate con1 in presence of fetal bovine serum. It is filed as functional, Hepacivirus hominis.

pEC50, pIC50: −log10 of the molar value.

The term pIC50 denotes the IC50 on a negative log10 scale, so that one unit is a factor of ten. The term CC50 denotes the concentration at which the toxic effect on the cells reaches its halfway point. The low end stands for harm at low concentration, the high end for better tolerance by the cells. As a reminder, the pEC50 is −log10 of the EC50, conventionally taken in molar units. As to `CC(=O)Nc1ccc2c(c1)S(=O)(=O)C=C(c1c(O)c3cc(F)ccc3n(Cc3ccc(F)cc3)c1=O)N2`, the pIC50 in data set [1] is 6.06. The CC50 in data set [2] was more than 50 µM. Also, in data set [3], the negative-log EC50 (pEC50) is 4.96.

On to `CCCC(C)n1c(=O)c(C2=CS(=O)(=O)c3cc(NS(C)(=O)=O)ccc3N2)c(O)c2cc(F)ccc21` (stereo not given), for which the negative logarithm of the IC50 (pIC50) in data set [1] is 7.39. In data set [2], this molecule gave a CC50 of more than 50 µM. Also, in data set [3], the pEC50 was 8.05.

Take `Cc1ccc2c(c1)c(O)c(C1=CS(=O)(=O)c3cc(NS(C)(=O)=O)ccc3N1)c(=O)n2Cc1ccc(F)cc1`: in data set [1], the pIC50 was 7.77. This molecule also yielded a CC50 in data set [2] of more than 50 µM. The pEC50 in data set [3] is 7.60.

Turning to `CS(=O)(=O)Nc1ccc2c(c1)S(=O)(=O)C=C(c1c(O)c3cc(F)ccc3n(Cc3ccccn3)c1=O)N2`, the pIC50 in data set [1] is 6.99. Also, the CC50 in data set [2] is more than 50 µM. Further, the pEC50 in data set [3] is 5.92.

The molecule `O=c1c(C2=CS(=O)(=O)c3ccccc3N2)c(O)c2cc(F)ccc2n1Cc1ccc(F)cc1` returned a CC50 in data set [2] of more than 50 µM. For the same molecule, the negative logarithm of the EC50 (pEC50) in data set [3] is 6.14.

With `NC(=O)COc1ccc2c(c1)S(=O)(=O)C=C(c1c(O)c3cc(F)ccc3n(Cc3ccc(F)cc3)c1=O)N2`, in data set [1], the pIC50 is 8.00. The same molecule came in with a CC50 in data set [2] of more than 50 µM. Further, the negative logarithm of the EC50 (pEC50) in data set [3] is 5.93.

On to `CN(c1ccc2c(c1)S(=O)(=O)C=C(c1c(O)c3cc(F)ccc3n(Cc3ccc(F)cc3)c1=O)N2)S(C)(=O)=O`, for which, in data set [1], the pIC50 was 6.97. The molecule also came in with a cytotoxic concentration (CC50) in data set [2] of more than 50 µM. The pEC50 in data set [3] was 5.83.

`CS(=O)(=O)Nc1ccc2c(c1)S(=O)(=O)C=C(c1c(O)c3cccc(F)c3n(Cc3ccc(F)cc3)c1=O)N2`: the pIC50 in data set [1] was 8.10. In data set [2], this molecule registered a cytotoxic concentration (CC50) of more than 50 µM. For the same molecule, the pEC50 was 6.99 in data set [3] and 5.56 in data set [4]. Also, the “fold change (FC)” value in data set [5] amounted to 26.9.

Turning to `NS(=O)(=O)Nc1ccc2c(c1)S(=O)(=O)C=C(c1c(O)c3cc(F)ccc3n(Cc3ccc(F)cc3)c1=O)N2`, the pIC50 in data set [1] is 8.15. This molecule also showed a CC50 in data set [2] of more than 50 µM. The pEC50 in data set [3] is 7.82.

Consider `CS(=O)(=O)NCc1ccc2c(c1)S(=O)(=O)C=C(c1c(O)c3cc(F)ccc3n(Cc3ccc(F)cc3)c1=O)N2`, for which the pIC50 in data set [1] was 7.17. The molecule further had a CC50 in data set [2] of more than 50 µM. Moreover, the pEC50 in data set [3] is 5.16.

For `CNC(=O)COc1ccc2c(c1)S(=O)(=O)C=C(c1c(O)c3cc(F)ccc3n(Cc3ccc(F)cc3)c1=O)N2`, the negative-log IC50 (pIC50) in data set [1] was 7.60. This molecule also gave a CC50 in data set [2] of more than 50 µM. In data set [3], the pEC50 was 6.06.

`COC(C)(C)CCn1c(=O)c(C2=CS(=O)(=O)c3cc(NS(C)(=O)=O)ccc3N2)c(O)c2cc(F)ccc21`: the pIC50 in data set [1] is 8.00. This molecule yielded a CC50 in data set [2] of more than 50 µM. Also, the pEC50 is 7.33 in data set [3] and 5.92 in data set [4]. Besides, in data set [5], the “fold change (FC)” value was 9.2.

With `O=c1c(C2=CS(=O)(=O)c3cc(O)ccc3N2)c(O)c2cc(F)ccc2n1Cc1ccc(F)cc1`, the pIC50 in data set [1] is 7.16. Also, the cytotoxic concentration (CC50) in data set [2] was more than 50 µM. For the same molecule, the pEC50 in data set [3] was 5.76.

As for `CS(=O)(=O)Nc1ccc2c(c1)S(=O)(=O)C=C(c1c(O)c3c(Cl)cccc3n(Cc3ccc(F)cc3)c1=O)N2`, the pIC50 in data set [1] was 7.92. In data set [2], the half-maximal cytotoxic concentration (CC50) is more than 50 µM. Further, the negative logarithm of the EC50 (pEC50) in data set [3] is 7.32; in data set [4] it was 6.23. Besides, the “fold change (FC)” value in data set [5] was found to be 12.3.

Turning to `O=c1c(C2=CS(=O)(=O)c3cc(F)ccc3N2)c(O)c2cc(F)ccc2n1Cc1ccc(F)cc1`, in data set [1], the pIC50 is 6.83. The molecule further had a CC50 in data set [2] of more than 50 µM. Also, the pEC50 in data set [3] was 5.89.

Take `COc1cc(Cn2c(=O)c(C3=CS(=O)(=O)c4cc(NS(C)(=O)=O)ccc4N3)c(O)c3cc(F)ccc32)ccc1F`: in data set [1], the pIC50 was 8.00. In data set [2], this molecule yielded a CC50 of more than 50 µM. The pEC50 was 7.00 in data set [3] and 6.28 in data set [4]. In data set [5], the “fold change (FC)” value is recorded as 9.2.

`CS(=O)(=O)Nc1ccc2c(c1)S(=O)(=O)C=C(c1c(O)c3cc(F)ccc3n(Cc3ccncc3)c1=O)N2`: the pIC50 in data set [1] was 7.96. In data set [2], this molecule displayed a CC50 of more than 50 µM. Further, the results for the pEC50 in data set [3] and in data set [4] were 7.19 and 6.16, respectively. Moreover, in data set [5], the “fold change (FC)” value was determined as 9.2.

As for `CS(=O)(=O)Nc1ccc2c(c1)S(=O)(=O)C=C(c1c(O)c3ccccc3n(Cc3ccc(F)cc3)c1=O)N2`, the pIC50 in data set [1] was 8.70. This molecule also came in with a CC50 in data set [2] of more than 50 µM. Further, the results for the pEC50 in data set [3] and in data set [4] were 7.38 and 6.27, respectively. Besides, in data set [5], the “fold change (FC)” value is 13.

Regarding `CS(=O)(=O)Nc1ccc2c(c1)S(=O)(=O)C=C(c1c(O)c3cc(F)ccc3n(CC3CCCCC3)c1=O)N2`, the pIC50 in data set [1] is 7.74. The CC50 in data set [2] was more than 50 µM. Besides, in data set [3], the pEC50 is 7.00.

For the molecule `COc1ccc2c(c1)c(O)c(C1=CS(=O)(=O)c3cc(NS(C)(=O)=O)ccc3N1)c(=O)n2Cc1ccc(F)cc1`, the pIC50 in data set [1] is 8.30. The molecule further had a CC50 in data set [2] of more than 50 µM. Moreover, the pEC50 was 6.84 in data set [3] and 5.69 in data set [4]. Besides, the “fold change (FC)” value in data set [5] is reported as 14.3.

Consider `CS(=O)(=O)c1ccc2c(c1)S(=O)(=O)C=C(c1c(O)c3cc(F)ccc3n(Cc3ccc(F)cc3)c1=O)N2`, for which the pIC50 in data set [1] is 5.43. The same molecule registered a CC50 in data set [2] of more than 50 µM. The pEC50 in data set [3] is 4.92.

As for `N#Cc1ccc2c(c1)S(=O)(=O)C=C(c1c(O)c3cc(F)ccc3n(Cc3ccc(F)cc3)c1=O)N2`, the negative-log IC50 (pIC50) in data set [1] is 6.16. Also, the CC50 in data set [2] is more than 50 µM. Besides, in data set [3], the pEC50 was 5.33.

As for `CS(=O)(=O)Nc1ccc2c(c1)S(=O)(=O)C=C(c1c(O)c3ccc(F)cc3n(Cc3ccc(F)cc3)c1=O)N2`, in data set [1], the pIC50 was 8.00. Moreover, the 50% cytotoxic concentration (CC50) in data set [2] is more than 50 µM. Further, the pEC50 in data set [3] is 7.13; in data set [4], 6.05. Also, the “fold change (FC)” value in data set [5] was found to be 12.1.

`CC(C)(C)CCn1c(=O)c(C2=CS(=O)(=O)c3cc(NS(C)(=O)=O)ccc3N2)c(O)c2cc(F)ccc21`: the pIC50 in data set [1] is 7.92. The CC50 in data set [2] is more than 50 µM. Moreover, the pEC50 in data set [4] is 6.62.

For the molecule `CS(=O)(=O)Nc1ccc2c(c1)S(=O)(=O)C=C(c1c(O)c3ccc(Cl)cc3n(Cc3ccc(F)cc3)c1=O)N2`, the pIC50 in data set [1] is 6.42. Besides, in data set [2], the CC50 is more than 50 µM. In addition, the pEC50 in data set [3] was 5.64.

Consider `CS(=O)(=O)Nc1ccc2c(c1)S(=O)(=O)C=C(c1c(O)c3cc(F)ccc3n(Cc3ccc(F)c(Cl)c3)c1=O)N2`, for which the pIC50 in data set [1] is 7.80. In data set [2], the CC50 was more than 50 µM. Moreover, the pEC50 in data set [3] was 7.74.

Regarding `CS(=O)(=O)Nc1ccc2c(c1)S(=O)(=O)C=C(c1c(O)c3cc(F)ccc3n(Cc3ccc(F)c(F)c3)c1=O)N2`, the pIC50 in data set [1] is 7.85. This molecule registered a CC50 in data set [2] of more than 50 µM. The pEC50 in data set [3] was 7.82.

For the molecule `Nc1ccc2c(c1)S(=O)(=O)C=C(c1c(O)c3cc(F)ccc3n(Cc3ccc(F)cc3)c1=O)N2`, in data set [1], the pIC50 was 6.13. In data set [2], this molecule returned a CC50 of more than 50 µM. Also, in data set [3], the pEC50 was 6.08.

For the molecule `CS(=O)(=O)Nc1ccc2c(c1)S(=O)(=O)C=C(c1c(O)c3cc(Cl)ccc3n(Cc3ccc(F)cc3)c1=O)N2`, the pIC50 in data set [1] is 8.00. This molecule registered a CC50 in data set [2] of more than 50 µM. The pEC50 in data set [3] is 6.78.

Consider `CS(=O)(=O)Nc1ccc2c(c1)S(=O)(=O)C=C(c1c(O)c3cc(F)ccc3n(Cc3cccnc3)c1=O)N2`, for which the pIC50 in data set [1] is 7.66. In data set [2], this molecule registered a CC50 of more than 50 µM. In addition, in data set [3], the pEC50 is 6.23.
